Measurements: patent US20040106802A1, “Novel compounds and therapeutic uses thereof” (TORRENT PHARMACEUTICALS LTD., priority 2002, published 2004)
Values joined by “and” are separate entries in the source; they are usually repeats but may differ in a detail not shown here. Equal entries are not always repeated. Structures can show the parent of a compound that is named as a salt. Where two headings read alike, the source gives them in different places. One block for each compound: values may come before it.

Columns and labels:
nOSTZ diabetic rats = test: Oral glucose tolerance test in neonatal streptozotocin-induced (nOSTZ) diabetic rats, oral drug; type: in vivo, Wistar rats; conditions: 22 mg/kg oral; for percent change in blood glucose from basal glucose level / peak glucose levels (% from basal level): glucose load 1 g/kg; for peak glucose levels (% from basal level): significantly lower than vehicle (157.07±14.17%); for glucose tolerance (in words): nOSTZ rats
Description: Effect of Compound no. 140 and Compound no. 142 on Oral Glucose Tolerance in Neonatel Streptozotocin-Induced (nO STZ) Diabetic Rats
Principle of Glucose Estimation by Glucometer (One Touch, Lifescan, USA)
Glucose and oxygen react in the presence of glucose oxidase yielding gluconic acid and hydrogen peroxide. Hydrogen peroxide subsequently oxidizes the dyes in a reaction mediated by Peroxidase producing a blue colored form of the dyes (Marks and Dawson, 1965). The intensity of the blue color is proportional to the glucose concentration in the sample.
Wistar rats were made type 2 diabetic by injecting streptozotocin (STZ) at the dose of 90 mg/kg intraperitoneally on the day of birth (nOSTZ) to male pups (Portha et al, 2001). Animals showing overnight fasted blood glucose levels between 7-10 mM at the age of 10-12 weeks were used for the study. On the day of the experiment, animals were fasted overnight with free access to water.
Oral Glucose Tolerance Test (OGTT) (Pospisilik et al, 2002)
External jugular vein of overnight fasted nOSTZ rats was cannulated using polyethylene cannula with heparinized (100 IU/ml) saline under ether anesthesia and exteriorized at the back of the neck. After the animal was recovered from the anesthesia, blood sample was drawn as marked as ‘−5 min’ sample and drug formulation (in 0.5% sodium caboxymethyl cellulose, Na-CMC) was administered orally at the volume of 1 ml/kg body weight.
5 min after drug administration, blood sample was drawn as ‘0 min’ sample and glucose load at the dose of 1 g/kg body weight was administered orally. Blood samples were drawn subsequently at 5, 10, 15, 20, 30, 45, 60, 75, 90, 120, 180, 240 and 360 min time interval. Blood glucose is measured using glucometer.
Animals were divided into three groups: 1. Vehicle (0.5% Na-CMC) treated, 2. Compound no. 140 treated (22 mg/kg) and 3. Compound no. 142 treated (22 mg/kg).
Change in blood glucose at various time points was measured as percent increase or decrease from basal glucose level. Area under the curve (AUC) for glucose was calculated using WinNonlin software.

Porcine DPP-IV = target: T1, Porcine DPP-IV (Sus scrofa, UniProt P22411); test: Assay of DPP-IV enzyme inhibitory activity (spectrophotometric, Gly-Pro-pNA cleavage); type: biochemical; conditions: Porcine DPP-IV, Gly-Pro-pNA substrate, 30° C., mean ± SD of three experiments except compound Nos. 133 & 139, read-out: IC50 (μM) Mean ± SD, inhibitory activity on DPP-IV enzyme activity
T1 construct: purchased Sigma-Aldrich Germany

[1] = in vivo; cited from earlier work
zucker fatty rats = conditions: cited from earlier work
[2] = system: STZ induced diabetic rats; test: In vivo oral glucose tolerance study in nSTZ induced diabetic rats, i.v. drug; conditions: 8 mg/ml/kg i.v.
Protocol: In Vivo Oral Glucose Tolerance Studies
The anti-hyperglycemic effect of compound no. 95 (8 mg/ml/kg, i.v) after an oral glucose load of 1 gm/kg was studied in STZ induced diabetic rats (modified method of Balkan et al 1999).
Animals: Male STZ induced diabetic rats aged 10-12 weeks and weighing between 200-250 gm were used for the study. These rats were treated with streptozotocin administered intraperitoneally on the day of birth at a dose of 90 mg/kg. They were maintained under standard conditions till the age of 10-12 weeks when they were used for the study.
Materials: Glucose solution (1 gm/4 ml of saline), Diethyl ether compound no. 95 (8 mg/ml/kg), vehicle (1 ml/kg), Heparinized saline (100 IU/ml), glucometer and strips
Method: Animals were divided into two groups
Group I: 8 hours fasted rats were treated with compound no. 95 vehicle (1 ml/kg, i.v.) 5 min before administration of glucose load.
Group II: 8 hours fasted rats were treated with compound no. 95 (8 mg/ml/kg, i.v) 5 min before administration of glucose load.
In both groups, blood samples were taken before administration of vehicle/compound no. 95 and glucose load for blood glucose estimation. Blood glucose level before administration of compound no. 95 or its vehicle was considered as −5 min reading. Blood glucose level before administration of glucose was considered as 0 min reading.
After 10, 20, 30, 45, 60, 75, 90, 120, 150 and 180 min of glucose administration, blood glucose level was estimated by the glucose oxidase method using a LifeScan glucometer (Ca, USA). Blood glucose level at various time points was subtracted from the basal (0 min) reading. This was done to avoid changes in AUC because of variation in basal glucose level. The glucose excursion at various time points was plotted against time and the AUC was calculated.
The activity of compound no. 95 was expressed as % reduction in AUC as compared with that of its vehicle.

[3] = In-vitro free radical scavenging activity using DPPH free radical; conditions: 30° C., 30 minutes, 515 nm
Outline: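 Compound solutions in methanol (10, 1, 0.5, 0.25 and 0.125 mM before a 1:10 addition) were mixed with 10^−4M methanolic DPPH and held 30 min at 30 °C. Absorbance was read at 515 nm against a methanol blank. % antioxidant activity = 100 − (OD test/OD control × 100).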

DPP-IV = conditions: in vivo; cited from earlier work

T1 sequence (P22411 whole entry): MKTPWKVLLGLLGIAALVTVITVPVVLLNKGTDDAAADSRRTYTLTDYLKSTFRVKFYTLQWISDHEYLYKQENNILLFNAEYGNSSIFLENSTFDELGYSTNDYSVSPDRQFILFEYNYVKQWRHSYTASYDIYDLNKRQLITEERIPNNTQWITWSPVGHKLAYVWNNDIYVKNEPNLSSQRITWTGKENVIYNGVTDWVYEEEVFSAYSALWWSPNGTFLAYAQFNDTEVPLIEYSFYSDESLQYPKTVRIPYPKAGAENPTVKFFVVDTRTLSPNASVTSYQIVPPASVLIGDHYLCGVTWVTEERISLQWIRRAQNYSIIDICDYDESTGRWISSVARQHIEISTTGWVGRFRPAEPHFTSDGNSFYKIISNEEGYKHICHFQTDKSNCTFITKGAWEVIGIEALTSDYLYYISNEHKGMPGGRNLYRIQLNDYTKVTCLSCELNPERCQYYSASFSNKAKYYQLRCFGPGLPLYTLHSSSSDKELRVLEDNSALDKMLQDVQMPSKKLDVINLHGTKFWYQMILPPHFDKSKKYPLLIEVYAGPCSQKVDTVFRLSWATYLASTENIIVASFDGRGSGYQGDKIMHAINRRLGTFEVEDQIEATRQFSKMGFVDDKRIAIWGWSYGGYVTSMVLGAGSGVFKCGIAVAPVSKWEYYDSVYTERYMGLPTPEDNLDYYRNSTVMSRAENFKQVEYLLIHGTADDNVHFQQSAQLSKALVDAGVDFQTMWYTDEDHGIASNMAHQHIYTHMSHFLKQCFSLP

Compound: GLP-19-36
- apparent half-life in the circulation [1]: 4 to 5 min

Compound: CC[C@H](C)[C@H](N)C(=O)N1CCSC1 [Isoleucine thiazolidide]
- glucose tolerance (in words) (zucker fatty rats): improved glucose tolerance

Compound: N#CC1CCCN1C(=O)C1CNCCN1.O=C(O)C(F)(F)F.O=C(O)C(F)(F)F (stereo not drawn) [Compound No. 1, 2-Cyano-1-(piperazine-2-yl)-carbonyl pyrrolidine bis-trifluoroacetate]
- melting point: 126 to 128 °C
- IC50 (Porcine DPP-IV): 47.6 ± 2.72 µM

Compound: N#CC1CSCN1C(=O)CN(N)C1CCN(CC(=O)Nc2ccc(Cl)cn2)CC1 (stereo not drawn) [Compound No. 95]
- Glucose excursions after a 1 gm/kg glucose load ([2]; 0 min): 0.0
- AUC values mM * min of glucose excursion ([2]; 5 min before 1 gm/kg glucose load, Mean ± SD, P < 0.05 vs vehicle): 413.3±134.6 mM * min and 413.3 ± 134.6a mM * min
- effect on hyperglycemia (in words) ([2]; nSTZ induced diabetic rats): controls hyperglycemia and brings the glucose levels to normoglycemic range
- Glucose excursions after a 1 gm/kg glucose load ([2]; 10 min): 3.9
- Glucose excursions after a 1 gm/kg glucose load ([2]; 20 min): 5.9
- Glucose excursions after a 1 gm/kg glucose load ([2]; 30 min): 7.8
- Glucose excursions after a 1 gm/kg glucose load ([2]; 45 min): 6.2
- Glucose excursions after a 1 gm/kg glucose load ([2]; 60 min): 4.1
- Glucose excursions after a 1 gm/kg glucose load ([2]; 75 min): 2.7
- Glucose excursions after a 1 gm/kg glucose load ([2]; 90 min): 0.5
- Glucose excursions after a 1 gm/kg glucose load ([2]; 120 min): −2.8
- Glucose excursions after a 1 gm/kg glucose load ([2]; 150 min): −4.1
- Glucose excursions after a 1 gm/kg glucose load ([2]; 180 min): −3.9
- % Activity (antioxidant, DPPH) ([3]; Concentration 12.5 μM, 12.5 µM): 22.06%
- % Activity (antioxidant, DPPH) ([3]; Concentration 25 μM, 25 µM): 36.87%
- % Activity (antioxidant, DPPH) ([3]; Concentration 50 μM, 50 µM): 44.81%
- % Activity (antioxidant, DPPH) ([3]; Concentration 100 μM, 100 µM): 65.52%

Compound: N#Cc1ccc(NCCNCC(=O)N2CCC[C@H]2C#N)nc1 [NVP-DPP-728, 1-[-2-{(5-cyanopyridin-2-yl)amino}ethylamino]acetyl-2-cyano-(S)-pyrrolidine]
- insulin secretion and glucose tolerance (in words) (DPP-IV): improves insulin secretion and glucose tolerance

Second part, led by results:

- IC50 (Porcine DPP-IV; trihydrochloride): 0.13 ± 0.03 µM
Compound: Cl.Cl.Cl.N#Cc1ccc(NC(=O)CN2CCC(N(N)CC(=O)N3CSCC3C#N)CC2)nc1 (stereo not drawn) [compound 140, 3-[1-oxo-2-(1-(1-(2-oxo-2-(5-cyanopyridin-2-yl)aminoethyl)piperidin-4-yl))hydrazino]ethyl-4-cyano thiazolidine, trihydrochloride]
- percent change in blood glucose from basal glucose level (nOSTZ diabetic rats; 0 min): 0.0 ± 0.0%
- peak glucose levels (% from basal level) (nOSTZ diabetic rats): 99.19±17.87%
- glucose tolerance (in words) (nOSTZ diabetic rats): improved glucose tolerance
- percent change in blood glucose from basal glucose level (nOSTZ diabetic rats; 5 min): 21.97 ± 1.14%
- percent change in blood glucose from basal glucose level (nOSTZ diabetic rats; 10 min): 49.11 ± 11.7%
- percent change in blood glucose from basal glucose level (nOSTZ diabetic rats; 15 min): 64.67 ± 10.17%
- percent change in blood glucose from basal glucose level (nOSTZ diabetic rats; 20 min): 69.62 ± 12.73%
- percent change in blood glucose from basal glucose level (nOSTZ diabetic rats; 30 min): 90.29 ± 22.93%
- percent change in blood glucose from basal glucose level (nOSTZ diabetic rats; 45 min): 99.19 ± 17.87%
- percent change in blood glucose from basal glucose level (nOSTZ diabetic rats; 60 min): 82.76 ± 16.22%
- percent change in blood glucose from basal glucose level (nOSTZ diabetic rats; 90 min): 34.3 ± 20.32%
- percent change in blood glucose from basal glucose level (nOSTZ diabetic rats; 120 min): −21.87 ± 25.68%
- percent change in blood glucose from basal glucose level (nOSTZ diabetic rats; 180 min): −45.71 ± 18.48%
- percent change in blood glucose from basal glucose level (nOSTZ diabetic rats; 240 min): −48.6 ± 13.58%
- percent change in blood glucose from basal glucose level (nOSTZ diabetic rats; 360 min): −49.76 ± 10.31%

- melting point: 148 to 150 °C (dec.)
Compound: CC(C)N(N)C(=O)N1CSCC1C#N.Cl (stereo not drawn)

- IC50 (Porcine DPP-IV): 0.07 ± 0.01 µM
Compound: N#CC1CSCN1C(=O)CN(N)C1CCN(CC(=O)Nc2ccc(S(N)(=O)=O)cc2)CC1 (stereo not drawn) [compound 142, 3-[1-oxo-2-(1-(1-(2-oxo-2-(4-aminosulphonylphenyl)aminoethyl)piperidin-4-yl))hydrazino]ethyl-4-cyano thiazolidine, dihydrochloride]
- percent change in blood glucose from basal glucose level (nOSTZ diabetic rats; 0 min): 0.0 ± 0.0%
- peak glucose levels (% from basal level) (nOSTZ diabetic rats): 87.25±15.61%
- glucose tolerance (in words) (nOSTZ diabetic rats): improved glucose tolerance
- percent change in blood glucose from basal glucose level (nOSTZ diabetic rats; 5 min): 9.79 ± 4.13%
- percent change in blood glucose from basal glucose level (nOSTZ diabetic rats; 10 min): 29.41 ± 3.4%
- percent change in blood glucose from basal glucose level (nOSTZ diabetic rats; 15 min): 46.51 ± 5.23%
- percent change in blood glucose from basal glucose level (nOSTZ diabetic rats; 20 min): 56.51 ± 4.33%
- percent change in blood glucose from basal glucose level (nOSTZ diabetic rats; 30 min): 77.93 ± 12.12%
- percent change in blood glucose from basal glucose level (nOSTZ diabetic rats; 45 min): 87.25 ± 15.61%
- percent change in blood glucose from basal glucose level (nOSTZ diabetic rats; 60 min): 67.33 ± 11.49%
- percent change in blood glucose from basal glucose level (nOSTZ diabetic rats; 90 min): 67.45 ± 9.8%
- percent change in blood glucose from basal glucose level (nOSTZ diabetic rats; 120 min): 31.4 ± 8.51%
- percent change in blood glucose from basal glucose level (nOSTZ diabetic rats; 180 min): −48.05 ± 5.75%
- percent change in blood glucose from basal glucose level (nOSTZ diabetic rats; 240 min): −58.87 ± 6.10%
- percent change in blood glucose from basal glucose level (nOSTZ diabetic rats; 360 min): −63.57 ± 4.77%

- melting point: 166 to 168 °C (dec.)
Compound: Cl.N#CC1CSCN1C(=O)N(N)C1CCCCC1 (stereo not drawn)

- melting point: 160 to 162 °C (dec.)
Compound: Cl.N#CC1CCCN1C(=O)N(N)C1CCCCC1 (stereo not drawn)
